Reference: publication PMC8150775, “Repositioning Azelnidipine as a Dual Inhibitor Targeting CD47/SIRPα and TIGIT/PVR Pathways for Cancer Immuno-Therapy” (Biomolecules, 2021)

Tests used:
mouse TIGIT/PVR = molecular target: T1, mouse TIGIT/PVR (Mus musculus, UniProt F6V4I7); test: Blocking assay, mouse PVR protein binding to CHOK1-mTIGIT cells; details: concentration gradient; read-out: IC50, blocking mouse TIGIT/PVR (mPVR binding)
T1 construct: purchased Sino Biological 50259-M03H; host or cells: soluble protein purchased; TIGIT on CHOK1-mTIGIT cells (lenti-viral transfection)
Procedure: The abilities of small molecule inhibitors (SMIs) (purchased from TargetMol, Shanghai, China) to block the binding of SIRPα protein to CHOK1-CD47 cells or PVR protein to CHOK1-TIGIT cells were determined by flow cytometry, as previously reported. The SMIs at indicated concentrations were incubated with Fc-tagged SIRPα or PVR protein for 30 min at 4°C, followed by incubating with the indicated cells for another 30 min. Human SIRPα protein (SIA-[…], ACRO Biosystem, Beijing, China), mouse SIRPα protein (SIA-[…], ACRO Biosystem, Beijing, China), human PVR protein (CD5-[…], ACRO Biosystem, Beijing, China), and mouse PVR protein (50259-[…], Sino Biological, Beijing, China) were used. PE-conjugated anti-human IgG antibody was used to detect the Fc protein bind to cells. Cells incubated with the Fc proteins and anti-human IgG antibody without the SMIs serve as the positive control. The mean fluorescent intensity (MFI) of each sample was detected and recorded by a flow cytometry. The blocking efficacy of the SMIs was calculated as the equation: (MFI of the positive control-MFI of the SMI)/MFI of the positive control × 100%.

human PD-1/PD-L1 = molecular target: T2, human PD-1/PD-L1 (Homo sapiens, UniProt Q15116); test: Blocking assay, PD-1-Fc protein binding to CHOK1-hPD-L1 cells; details: 100 μM
T2 construct: host or cells: CHOK1-hPD-L1 cells
Source text: The small molecule inhibitor could not only bind to the target; most importantly, it should interfere with the receptor–ligand interactions. Subsequently, the candidate inhibitors were screened by the blocking assays with the established CD47 and TIGIT over-expressing cell lines. The test was initialed with a preliminary screening of the candidates with a single concentration (Figure 2D). Generally, the SMI blocking efficacy to the CD47/SIRPα interaction was much higher than that of the TIGIT/PVR. […] Therefore, the SMI-F11 and SMI-F17 may exert dual blocking effects in the CD47/SIRPα and TIGIT/PVR pathways. Blocking assays with a concentration gradient of the SMI were further performed to validate the preliminary screening. […] The similar blocking assays with the mouse CD47 and TIGIT over-expressing cells were also performed. […] Considering that most pairs of the immune checkpoints interact with the corresponding ligand in parallel forms, the blocking assays with the PD-1/PD-L1 interaction system was also conducted to test the specificity.
There are three supplemental Figures and one supplemental Table.
Supplemental figure and legend
Figure S1. The blocking efficacy of PD-1/PD-L1 by Azelnidipine. (A) The representative FACS histogram of blocking assay of Azelnidipine (100 μM) with CHOK1-hPD-L1 cells and PD-1-Fc protein (blue histogram). […]

human PVR = molecular target: T3, human PVR (Homo sapiens, UniProt P15151); test: Microscale thermophoresis (MST) binding
T3 construct: His; purchased ACRO Biosystem CD5-H5223
Procedure: (§1) MST assays were performed to test the affinity of SMI-F11 (azelnidipine) to the indicated protein using the Monolith NT.115 system, as previously reported. His tagged human SIRPα (SIA-H5225, ACRO Biosystem, Beijing, China), mouse SIRPα (50956-M08H, Sino Biological, Beijing, China), human PVR (CD5-H5223, ACRO Biosystem, Beijing, China), and mouse PVR (50259-M08H, Sino Biological, Beijing, China) were used. The protein was labeled with Red-NHS647 dye (NanoTemper Technologies GmhH, Munich, Germany) according to the manufacturer’s instructions. Azelnidipine was 2-fold serially diluted from 200 μM and subsequently tested. Red-NHS647 dye-labeled protein was incubated with the diluted azelnidipine, with equal volume for 5 min at room temperature; the mixture was then loaded onto standard capillaries for detection. The KD values were calculated by the analysis software (MO. Affinity Analysis, version number 2.2.4, NanoTemper Technologies GmhH, Munich, Germany).

human SIRPα = molecular target: T4, human SIRPα (Homo sapiens, UniProt P78324); test: Microscale thermophoresis (MST) binding
T4 construct: His; purchased ACRO Biosystem SIA-H5225
Procedure: as §1

mouse PVR = mouse PVR (Mus musculus, UniProt F6V4I7); test: Microscale thermophoresis (MST) binding
Procedure: as §1

mouse SIRPα = molecular target: T5, mouse SIRPα (Mus musculus, UniProt P97797); test: Microscale thermophoresis (MST) binding
T5 construct: His; purchased Sino Biological 50956-M08H
Procedure: as §1

CT26 tumors = test: CD8+ T cell depletion CT26 tumor model; format: in vivo, BALB/c mice
Procedure: To establish the CD8^+ T cell depletion model, BALB/c mice were injected with 200 μg of CD8-depleting antibody (clone: YTS169.4) or matched Rat IgG isotype control (Sigma-Aldrich) the day before tumor inoculation and as well as weekly thereafter, resulting in a total of 3 injections per mouse. Depletion efficacy of CD8^+ T cells was verified by a flow cytometry with the blood sample of mice treated with indicated antibodies for 7 days.
Figure S2. The antitumor effects of Azelnidipine in CD8+ T cell depleted CT26 tumor model.
(A) CT26 tumor-bearing mice were i.p. administrated with 5 mg/kg of Azelnidipine daily as in the schematic diagram. (B) Blood samples of the mice treated with 200 μg anti-CD8 (YTS 169.4) or Rat IgG control for seven days were used to analyze the depletion efficacy by flow cytometry.
(C) Tumor growth curve of CT26 tumor-bearing mice treated with normal saline or Azelnidipine alone (n = 5 or 6). (D) Representative flow cytometry plots and summary data of the MDSCs in the tumor tissues of the Rat IgG treated groups (NS and Azelnidipine). (E) Representative flow cytometry histograms and summary data of the expression of SIRPα on M-MDSCs in the tumor tissues of the Rat IgG treated groups (NS and Azelnidipine). *, P<0.05.
(1 picture or pasted object on this page, not shown here)

THP-1 macrophages = system: THP-1 macrophages; set-up: method as in PMID 29398679, PMID 20606305; details: cited from earlier work
tumor = system: tumor; set-up: method as in earlier work; details: cited from earlier work
[1] = 5 mg/kg i.p., Rat IgG treated groups

T2 sequence (Q15116 25-167 limits assumed): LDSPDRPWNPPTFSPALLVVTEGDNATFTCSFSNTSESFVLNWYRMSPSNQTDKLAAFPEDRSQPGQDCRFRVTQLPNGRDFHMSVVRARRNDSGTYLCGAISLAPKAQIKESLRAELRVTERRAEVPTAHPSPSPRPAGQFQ
T4 sequence (P78324 31-504): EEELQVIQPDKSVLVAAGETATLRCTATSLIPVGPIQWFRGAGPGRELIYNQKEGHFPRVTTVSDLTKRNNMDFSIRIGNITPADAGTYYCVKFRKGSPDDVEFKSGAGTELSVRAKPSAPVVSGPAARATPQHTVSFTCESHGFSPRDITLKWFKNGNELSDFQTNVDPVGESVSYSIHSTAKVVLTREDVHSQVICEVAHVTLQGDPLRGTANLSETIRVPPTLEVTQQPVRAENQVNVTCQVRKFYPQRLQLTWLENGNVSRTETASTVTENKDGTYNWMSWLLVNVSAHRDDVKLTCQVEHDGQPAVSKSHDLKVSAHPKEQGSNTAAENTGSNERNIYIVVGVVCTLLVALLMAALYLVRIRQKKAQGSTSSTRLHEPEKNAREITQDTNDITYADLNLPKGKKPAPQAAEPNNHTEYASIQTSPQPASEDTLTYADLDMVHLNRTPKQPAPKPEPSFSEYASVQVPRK
T5 sequence (P97797 32-513): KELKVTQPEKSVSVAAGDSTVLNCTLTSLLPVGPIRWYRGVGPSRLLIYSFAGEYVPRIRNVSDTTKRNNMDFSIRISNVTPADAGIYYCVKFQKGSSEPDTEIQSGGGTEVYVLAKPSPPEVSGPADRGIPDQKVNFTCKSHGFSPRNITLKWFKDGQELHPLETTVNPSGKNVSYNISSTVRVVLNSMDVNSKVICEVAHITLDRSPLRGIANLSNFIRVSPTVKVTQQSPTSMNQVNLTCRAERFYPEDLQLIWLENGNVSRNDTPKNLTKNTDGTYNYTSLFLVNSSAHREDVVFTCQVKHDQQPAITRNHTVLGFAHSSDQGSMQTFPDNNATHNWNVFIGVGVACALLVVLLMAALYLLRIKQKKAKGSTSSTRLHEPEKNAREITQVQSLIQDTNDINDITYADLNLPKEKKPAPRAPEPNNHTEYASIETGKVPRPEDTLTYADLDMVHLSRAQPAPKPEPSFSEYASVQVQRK
T1 sequence (F6V4I7 29-408): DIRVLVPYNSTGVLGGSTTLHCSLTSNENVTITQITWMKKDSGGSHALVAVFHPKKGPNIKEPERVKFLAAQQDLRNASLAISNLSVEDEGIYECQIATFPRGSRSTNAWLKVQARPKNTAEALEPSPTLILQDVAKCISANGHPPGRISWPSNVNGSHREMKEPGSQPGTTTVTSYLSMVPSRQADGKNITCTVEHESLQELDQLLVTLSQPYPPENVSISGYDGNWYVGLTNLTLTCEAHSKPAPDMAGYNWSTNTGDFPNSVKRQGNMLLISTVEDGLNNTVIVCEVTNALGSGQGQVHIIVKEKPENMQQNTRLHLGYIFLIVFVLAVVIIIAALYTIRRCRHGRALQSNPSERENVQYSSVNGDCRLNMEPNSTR
Chain of mouse PVR (F6V4I7 29-347): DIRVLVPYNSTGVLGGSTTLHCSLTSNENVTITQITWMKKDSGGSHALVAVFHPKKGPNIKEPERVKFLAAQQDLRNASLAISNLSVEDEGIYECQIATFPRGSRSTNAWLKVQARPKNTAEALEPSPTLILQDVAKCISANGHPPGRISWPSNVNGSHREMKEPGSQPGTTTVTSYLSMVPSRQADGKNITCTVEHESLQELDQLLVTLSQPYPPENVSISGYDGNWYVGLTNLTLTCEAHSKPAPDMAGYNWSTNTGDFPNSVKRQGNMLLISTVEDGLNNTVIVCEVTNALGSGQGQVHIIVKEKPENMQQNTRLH
T3 sequence (P15151 21-417): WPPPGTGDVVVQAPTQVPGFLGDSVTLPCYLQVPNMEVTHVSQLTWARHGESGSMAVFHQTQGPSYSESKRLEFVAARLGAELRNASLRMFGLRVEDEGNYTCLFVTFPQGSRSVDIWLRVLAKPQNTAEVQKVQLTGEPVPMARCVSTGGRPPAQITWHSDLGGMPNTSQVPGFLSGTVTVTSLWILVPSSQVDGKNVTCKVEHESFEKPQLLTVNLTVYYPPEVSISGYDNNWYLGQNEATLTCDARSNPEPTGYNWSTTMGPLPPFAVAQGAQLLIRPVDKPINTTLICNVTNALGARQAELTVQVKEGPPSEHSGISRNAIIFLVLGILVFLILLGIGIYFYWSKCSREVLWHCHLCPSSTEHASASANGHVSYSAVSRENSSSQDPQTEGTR

CC1=C(C(=O)OC(C)C)C(c2cccc([N+](=O)[O-])c2)C(C(=O)OC2CN(C(c3ccccc3)c3ccccc3)C2)=C(N)N1 (stereo not drawn) [Azelnidipine]
IC50 (mouse TIGIT/PVR): ~82 µM | blocking of human PD-1/PD-L1 interaction (human PD-1/PD-L1): could not block | Kd (human PVR): 6.48 µM | Kd (human SIRPα): 5.37 µM | Kd (mouse PVR): 13.3 µM | Kd (mouse SIRPα): 3.75 µM | anti-tumor effect with CD8+ T cells depleted (CT26 tumors; 5 mg/kg i.p. daily, CD8-depleting antibody): abrogated | CT26 tumor growth, Rat IgG treated groups (CT26 tumors; 5 mg/kg i.p. daily, Rat IgG isotype control): significantly inhibit tumor growth | expression level of SIRPα on MDSCs in CT26 tumor tissues, NS vs azelnidipine (CT26 tumors; [1]): no significant difference | infiltration of MDSCs in CT26 tumor tissues, NS vs azelnidipine (CT26 tumors; [1]): no significant difference | differentiation and activation of THP-1 macrophages (THP-1 macrophages): inhibit the differentiation and activation | tumor growth in vivo (tumor): significantly inhibit the tumor growth in vivo
